Laboratory results: the NIST ThermoML archive (doi:10.1016/j.jct.2016.09.030)

Test: xn = mol fraction of the nth substance listed
Settings: 100 kPa, Liquid; for viscosity: Concentric cylinders viscometry; for mass density: Vibrating tube method

CCCCCCCC(=O)OCC [ethyl octanoate] + CC(C)CO
Settings | mass density [kg/m3] | viscosity [mPa·s]
288.15 K, x1 = 0.1001 | 817.82 | 3.229
288.15 K, x1 = 0.1999 | 827.81 | 2.537
288.15 K, x1 = 0.3 | 836.01 | 2.169
288.15 K, x1 = 0.4 | 843.08 | 1.977
288.15 K, x1 = 0.5 | 849.18 | 1.851
288.15 K, x1 = 0.5999 | 854.5 | 1.766
288.15 K, x1 = 0.6999 | 859.21 | 1.703
288.15 K, x1 = 0.7999 | 863.44 | 1.677
288.15 K, x1 = 0.9 | 867.3 | 1.677
288.15 K, x1 = 1 | 870.88 | 1.686
293.15 K, x1 = 0.1001 | 813.83 | 2.762
293.15 K, x1 = 0.1999 | 823.71 | 2.22
293.15 K, x1 = 0.3 | 831.83 | 1.921
293.15 K, x1 = 0.4 | 838.85 | 1.768
293.15 K, x1 = 0.5 | 844.91 | 1.661
293.15 K, x1 = 0.5999 | 850.21 | 1.593
293.15 K, x1 = 0.6999 | 854.9 | 1.543
293.15 K, x1 = 0.7999 | 859.12 | 1.523
293.15 K, x1 = 0.9 | 862.98 | 1.524
293.15 K, x1 = 1 | 866.58 | 1.537
298.15 K, x1 = 0.1001 | 809.81 | 2.416
298.15 K, x1 = 0.1999 | 819.58 | 1.961
298.15 K, x1 = 0.3 | 827.63 | 1.716
298.15 K, x1 = 0.4 | 834.6 | 1.592
298.15 K, x1 = 0.5 | 840.63 | 1.503
298.15 K, x1 = 0.5999 | 845.9 | 1.447
298.15 K, x1 = 0.6999 | 850.58 | 1.407
298.15 K, x1 = 0.7999 | 854.81 | 1.393
298.15 K, x1 = 0.9 | 858.67 | 1.393
298.15 K, x1 = 1 | 862.28 | 1.41
303.15 K, x1 = 0.1001 | 805.76 | 2.111
303.15 K, x1 = 0.1999 | 815.43 | 1.74
303.15 K, x1 = 0.3 | 823.41 | 1.541
303.15 K, x1 = 0.4 | 830.32 | 1.44
303.15 K, x1 = 0.5 | 836.32 | 1.364
303.15 K, x1 = 0.5999 | 841.57 | 1.321
303.15 K, x1 = 0.6999 | 846.25 | 1.289
303.15 K, x1 = 0.7999 | 850.48 | 1.278
303.15 K, x1 = 0.9 | 854.35 | 1.283
303.15 K, x1 = 1 | 857.98 | 1.298
308.15 K, x1 = 0.1001 | 801.68 | 1.854
308.15 K, x1 = 0.1999 | 811.24 | 1.554
308.15 K, x1 = 0.3 | 819.16 | 1.389
308.15 K, x1 = 0.4 | 826.03 | 1.307
308.15 K, x1 = 0.5 | 832 | 1.246
308.15 K, x1 = 0.5999 | 837.24 | 1.21
308.15 K, x1 = 0.6999 | 841.91 | 1.186
308.15 K, x1 = 0.7999 | 846.14 | 1.179
308.15 K, x1 = 0.9 | 850.03 | 1.184
308.15 K, x1 = 1 | 853.68 | 1.2
313.15 K, x1 = 0.1001 | 797.55 | 1.642
313.15 K, x1 = 0.1999 | 807.02 | 1.399
313.15 K, x1 = 0.3 | 814.88 | 1.264
313.15 K, x1 = 0.4 | 821.71 | 1.196
313.15 K, x1 = 0.5 | 827.66 | 1.148
313.15 K, x1 = 0.5999 | 832.89 | 1.119
313.15 K, x1 = 0.6999 | 837.56 | 1.1
313.15 K, x1 = 0.7999 | 841.8 | 1.096
313.15 K, x1 = 0.9 | 845.7 | 1.103
313.15 K, x1 = 1 | 849.37 | 1.118
318.15 K, x1 = 0.1001 | 793.38 | 1.453
318.15 K, x1 = 0.1999 | 802.76 | 1.254
318.15 K, x1 = 0.3 | 810.56 | 1.144
318.15 K, x1 = 0.4 | 817.36 | 1.089
318.15 K, x1 = 0.5 | 823.29 | 1.05
318.15 K, x1 = 0.5999 | 828.51 | 1.027
318.15 K, x1 = 0.6999 | 833.19 | 1.013
318.15 K, x1 = 0.7999 | 837.45 | 1.012
318.15 K, x1 = 0.9 | 841.37 | 1.02
318.15 K, x1 = 1 | 845.06 | 1.035
323.15 K, x1 = 0.1001 | 789.15 | 1.308
323.15 K, x1 = 0.1999 | 798.46 | 1.144
323.15 K, x1 = 0.3 | 806.21 | 1.052
323.15 K, x1 = 0.4 | 812.99 | 1.006
323.15 K, x1 = 0.5 | 818.9 | 0.975
323.15 K, x1 = 0.5999 | 824.13 | 0.9556
323.15 K, x1 = 0.6999 | 828.81 | 0.9463
323.15 K, x1 = 0.7999 | 833.08 | 0.9462
323.15 K, x1 = 0.9 | 837.02 | 0.9546
323.15 K, x1 = 1 | 840.74 | 0.9708

CCOC(=O)CCC(=O)OCC [diethyl butanedioate] + CC(C)CO
Settings | mass density [kg/m3] | viscosity [mPa·s]
288.15 K, x1 = 0.0999 | 844.65 | 3.284
288.15 K, x1 = 0.2 | 878.53 | 2.763
288.15 K, x1 = 0.3001 | 908.28 | 2.542
288.15 K, x1 = 0.4 | 934.67 | 2.473
288.15 K, x1 = 0.4999 | 958.02 | 2.477
288.15 K, x1 = 0.5999 | 978.97 | 2.546
288.15 K, x1 = 0.6999 | 997.81 | 2.625
288.15 K, x1 = 0.8 | 1014.88 | 2.774
288.15 K, x1 = 0.9 | 1030.48 | 2.962
288.15 K, x1 = 1 | 1044.83 | 3.195
293.15 K, x1 = 0.0999 | 840.5 | 2.816
293.15 K, x1 = 0.2 | 874.13 | 2.403
293.15 K, x1 = 0.3001 | 903.71 | 2.23
293.15 K, x1 = 0.4 | 929.94 | 2.177
293.15 K, x1 = 0.4999 | 953.16 | 2.186
293.15 K, x1 = 0.5999 | 974.02 | 2.249
293.15 K, x1 = 0.6999 | 992.78 | 2.32
293.15 K, x1 = 0.8 | 1009.79 | 2.45
293.15 K, x1 = 0.9 | 1025.33 | 2.611
293.15 K, x1 = 1 | 1039.63 | 2.807
298.15 K, x1 = 0.0999 | 836.33 | 2.443
298.15 K, x1 = 0.2 | 869.73 | 2.108
298.15 K, x1 = 0.3001 | 899.12 | 1.973
298.15 K, x1 = 0.4 | 925.2 | 1.931
298.15 K, x1 = 0.4999 | 948.31 | 1.947
298.15 K, x1 = 0.5999 | 969.07 | 2.004
298.15 K, x1 = 0.6999 | 987.75 | 2.073
298.15 K, x1 = 0.8 | 1004.7 | 2.184
298.15 K, x1 = 0.9 | 1020.18 | 2.322
298.15 K, x1 = 1 | 1034.44 | 2.491
303.15 K, x1 = 0.0999 | 832.13 | 2.135
303.15 K, x1 = 0.2 | 865.31 | 1.866
303.15 K, x1 = 0.3001 | 894.51 | 1.756
303.15 K, x1 = 0.4 | 920.45 | 1.73
303.15 K, x1 = 0.4999 | 943.44 | 1.747
303.15 K, x1 = 0.5999 | 964.11 | 1.802
303.15 K, x1 = 0.6999 | 982.72 | 1.864
303.15 K, x1 = 0.8 | 999.6 | 1.964
303.15 K, x1 = 0.9 | 1015.04 | 2.084
303.15 K, x1 = 1 | 1029.25 | 2.229
308.15 K, x1 = 0.0999 | 827.9 | 1.875
308.15 K, x1 = 0.2 | 860.85 | 1.659
308.15 K, x1 = 0.3001 | 889.88 | 1.574
308.15 K, x1 = 0.4 | 915.68 | 1.557
308.15 K, x1 = 0.4999 | 938.56 | 1.576
308.15 K, x1 = 0.5999 | 959.14 | 1.629
308.15 K, x1 = 0.6999 | 977.68 | 1.686
308.15 K, x1 = 0.8 | 994.51 | 1.775
308.15 K, x1 = 0.9 | 1009.9 | 1.882
308.15 K, x1 = 1 | 1024.08 | 2.008
313.15 K, x1 = 0.0999 | 823.63 | 1.657
313.15 K, x1 = 0.2 | 856.36 | 1.484
313.15 K, x1 = 0.3001 | 885.22 | 1.418
313.15 K, x1 = 0.4 | 910.89 | 1.409
313.15 K, x1 = 0.4999 | 933.67 | 1.43
313.15 K, x1 = 0.5999 | 954.16 | 1.48
313.15 K, x1 = 0.6999 | 972.64 | 1.534
313.15 K, x1 = 0.8 | 989.42 | 1.614
313.15 K, x1 = 0.9 | 1004.76 | 1.71
313.15 K, x1 = 1 | 1018.9 | 1.821
318.15 K, x1 = 0.0999 | 819.31 | 1.471
318.15 K, x1 = 0.2 | 851.84 | 1.334
318.15 K, x1 = 0.3001 | 880.53 | 1.283
318.15 K, x1 = 0.4 | 906.08 | 1.281
318.15 K, x1 = 0.4999 | 928.76 | 1.304
318.15 K, x1 = 0.5999 | 949.18 | 1.352
318.15 K, x1 = 0.6999 | 967.59 | 1.403
318.15 K, x1 = 0.8 | 984.32 | 1.476
318.15 K, x1 = 0.9 | 999.62 | 1.562
318.15 K, x1 = 1 | 1013.72 | 1.66
323.15 K, x1 = 0.0999 | 814.95 | 1.324
323.15 K, x1 = 0.2 | 847.28 | 1.218
323.15 K, x1 = 0.3001 | 875.82 | 1.175
323.15 K, x1 = 0.4 | 901.24 | 1.18
323.15 K, x1 = 0.4999 | 923.83 | 1.201
323.15 K, x1 = 0.5999 | 944.18 | 1.249
323.15 K, x1 = 0.6999 | 962.54 | 1.3
323.15 K, x1 = 0.8 | 979.22 | 1.366
323.15 K, x1 = 0.9 | 994.48 | 1.438
323.15 K, x1 = 1 | 1008.55 | 1.523
